Results from patent publication US11174235B2, “Carboxy alkyl-ester anti-agglomerants for the control of natural gas hydrates” (ChampionX USA Inc., priority 2018, dated 2021).

Assay: Sapphire rocking cell anti-agglomerant test
Conditions: dose needed for a pass ranking
Protocol: A Sapphire Rocking Cell RCS is commercially available from PSL Systemtechnik in Germany. The Sapphire Rocking Cell is a laboratory instrument used to test the performance of low dosage hydrate inhibitors. The compounds were evaluated based on their ability to effectively minimize the size of gas hydrate agglomerate particles and disperse those particles into the hydrocarbon phase. Chemical performance was evaluated by determining the maximum treatable water cut (water to oil ratio) and the minimum chemical dosage to register a pass in the rocking cell test.
A rocking cell has two parts, a manifold and a cell body. The manifold is made up of stainless steel fittings that are welded together. It has three stems. An inlet stem is used to charge gas into the cell. An outlet stem is used to release the gas out of the cell. The third stem connects to a transducer, which measures the pressure inside of the cell. The cell body has three layers. The outer layer is a polycarbonate tube, which has a thickness of 0.7 cm. The middle layer is made of stainless steel metal and is connected to the manifold. The inner layer is a high-pressure sapphire tube, which has an outer diameter of 2.8 cm, inner diameter of 1.85 cm, and length of 5 cm. This sapphire tube can handle up to 3000 psi. A stainless steel ball which has a diameter of 1.6 cm is located inside the sapphire tube to induce turbulence and mix fluids during the rocking process.
Test fluids usually contain three components. For the anti-agglomerate test, 7.2 mL of warm crude oil was first injected into the cell. Next, a solution of 30,000 total dissolved solids (TDS) ([…]) of NaCl synthetic brine was injected into the cell to make a 40% water cut mixture. The anti-agglomerate test compound was the final component injected into the cell. The dosage of the test compound was based on the volume of aqueous phase. The initial temperature was set to 21° C. Observations were made every two to three hours, before the rocking was stopped, and also immediately after the restart.
Each cell was charged with Green Canyon gas and pressurized up to 2500 psi. All cells rocked for at least 1.5 to 2 hours until fluid was saturated and pressure stabilized. The rocking was ceased and the tank temperature was reduced to the set point of 4° C. over approximately 8 hours. The cells were then reboosted to a pressure of 2500 psi and remained static for 24 hours. Rocking was restarted for 2 hours with frequent observations to rank each cell with a ranked set of pass/fail criterion. Pressure and tank temperature data was recorded during this time.
The pass/fail criteria are based on the ability of the ball in the rocking cell to move within the sapphire tube. […] In contrast, the anti-agglomerant fails if the ball's movement is obstructed or completely stopped by the formation of gas hydrate agglomerates. The anti-agglomerate's performance is borderline when there are observable gas hydrate agglomerates and at least some of the agglomerates are stuck to the walls of the sapphire tube; when these agglomerates are present and the movement of the ball is not restricted, the anti-agglomerant ranking is a borderline pass.

Row | SMILES | Minimum Effective Dose (MED) (Oil B (25% w/c)) [vol. %] | Minimum Effective Dose (MED) (Oil C (35% w/c)) [vol. %] | Minimum Effective Dose (MED) (Oil D (25% w/c)) [vol. %]
1 | CCCCCCCCCCCCOC(=O)C(CC(=O)O)NCCCN1CCCCCC1 (stereo not drawn) [Reaction 26] | 2.0 | >3.0 | 2.0
2 | CCCCN(CCCC)CCCN(CCC(=O)O)C(CC(=O)O)C(=O)OCCCCCCCCCCC(C)C (stereo not drawn) [Reaction 24] | 2.0 | 3.0 | 2.0
